This passage reports EC50 results from BindingDB's records for doi:10.7270/Q29C6VXX (Burnham Center For Chemical Genomics, 2011).

Structures are written as SMILES.

In general, EC50 refers to the concentration needed to bring the measured effect to its halfway point. Lower therefore signals a more potent agent.

The target of this test is T1, Apoptotic protease-activating factor 1 (Homo sapiens, UniProt O14727).
T1 sequence (O14727 whole entry): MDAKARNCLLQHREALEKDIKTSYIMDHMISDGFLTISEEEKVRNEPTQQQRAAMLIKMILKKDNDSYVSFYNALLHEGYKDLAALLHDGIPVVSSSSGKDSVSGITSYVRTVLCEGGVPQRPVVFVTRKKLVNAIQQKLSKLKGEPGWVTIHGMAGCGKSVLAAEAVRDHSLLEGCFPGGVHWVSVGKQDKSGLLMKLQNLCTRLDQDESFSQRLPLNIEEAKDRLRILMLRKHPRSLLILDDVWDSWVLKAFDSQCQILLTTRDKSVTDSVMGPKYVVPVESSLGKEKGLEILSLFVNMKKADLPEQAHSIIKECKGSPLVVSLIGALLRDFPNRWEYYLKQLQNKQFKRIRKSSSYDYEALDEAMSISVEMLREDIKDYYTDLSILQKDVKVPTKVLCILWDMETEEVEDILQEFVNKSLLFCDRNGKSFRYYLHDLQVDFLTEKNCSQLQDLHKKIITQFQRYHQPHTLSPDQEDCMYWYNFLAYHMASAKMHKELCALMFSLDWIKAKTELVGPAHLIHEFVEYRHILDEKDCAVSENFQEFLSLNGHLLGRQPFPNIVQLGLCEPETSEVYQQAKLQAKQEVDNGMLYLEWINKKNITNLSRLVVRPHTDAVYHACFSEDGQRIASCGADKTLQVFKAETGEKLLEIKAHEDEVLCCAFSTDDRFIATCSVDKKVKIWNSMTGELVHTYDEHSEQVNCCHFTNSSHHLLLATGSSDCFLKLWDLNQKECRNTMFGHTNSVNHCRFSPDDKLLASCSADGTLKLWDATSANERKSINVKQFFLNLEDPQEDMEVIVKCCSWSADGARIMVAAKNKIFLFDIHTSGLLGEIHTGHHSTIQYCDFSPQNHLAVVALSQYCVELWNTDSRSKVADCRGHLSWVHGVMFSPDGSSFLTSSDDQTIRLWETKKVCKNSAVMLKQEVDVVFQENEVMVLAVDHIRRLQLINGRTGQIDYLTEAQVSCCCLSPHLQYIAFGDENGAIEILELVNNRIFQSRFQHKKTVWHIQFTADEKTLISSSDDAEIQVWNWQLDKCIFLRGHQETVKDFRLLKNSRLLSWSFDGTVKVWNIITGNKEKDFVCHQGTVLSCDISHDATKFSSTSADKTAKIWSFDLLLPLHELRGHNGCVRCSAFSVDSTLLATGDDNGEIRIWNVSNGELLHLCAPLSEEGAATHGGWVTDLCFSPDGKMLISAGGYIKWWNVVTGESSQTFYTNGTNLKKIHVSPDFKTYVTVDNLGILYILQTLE
Kind of test: activation of Apaf-1 mediated apoptosis – fluorescent, uHTS hits, dose response (AID 588554).
`O=C(NN=CC1C=C(Cl)C=C([N+](=O)[O-])C1=O)NC12CC3CC(CC(C3)C1)C2` (stereo not drawn) [1-(1-adamantyl)-3-[[(E)-(3-chloro-5-nitro-6-oxo-1-cyclohexa-2,4-dienylidene)methyl]amino]urea] registered a 50% effective concentration (EC50) of 6.87 µM.

`CCOc1ccc(C(=O)CC=Nc2ccc(S(=O)(=O)NC(=N)N)cc2)cc1` [2-[4-[[(E)-3-(4-ethoxyphenyl)-3-oxidanylidene-prop-1-enyl]amino]phenyl]sulfonylguanidine] displayed an EC50 of 6.28 µM. `CSc1ccc(CN=Nc2ccc(S(=O)(=O)Nc3ccccc3C(=O)O)cc2[N+](=O)[O-])cc1` [MLS002245633]: the midpoint of the response, the EC50, lay at 8.23 µM.
